According to patent publication US20230255943A1, “MMP-9 AND MMP-12 INHIBITION FOR TREATING SPINAL CORD INJURY OR RELATED INJURY TO NEUROLOGICAL TISSUE” (The University of Birmingham, priority 2020, published 2023):

What was measured:
[1] = biological target: T1, MMP-12 (Mus musculus, UniProt P34960); assay: MMP-12 enzyme activity after SCI in mice (SensoLyte 520 fluorimetric assay); assay type: in vivo; conditions: for suppression of MMP-12 activity in CSF / suppression of MMP-12 activity in serum / suppression of MMP-12 activity in spinal cord tissues: DC injury; for suppression of MMP-12 activity in spinal cord tissues: lowest most effective dose
T1 construct: from tissue; host or cells: mouse spinal cord lesion site homogenate, serum and CSF
T1 sequence (P34960 110-473): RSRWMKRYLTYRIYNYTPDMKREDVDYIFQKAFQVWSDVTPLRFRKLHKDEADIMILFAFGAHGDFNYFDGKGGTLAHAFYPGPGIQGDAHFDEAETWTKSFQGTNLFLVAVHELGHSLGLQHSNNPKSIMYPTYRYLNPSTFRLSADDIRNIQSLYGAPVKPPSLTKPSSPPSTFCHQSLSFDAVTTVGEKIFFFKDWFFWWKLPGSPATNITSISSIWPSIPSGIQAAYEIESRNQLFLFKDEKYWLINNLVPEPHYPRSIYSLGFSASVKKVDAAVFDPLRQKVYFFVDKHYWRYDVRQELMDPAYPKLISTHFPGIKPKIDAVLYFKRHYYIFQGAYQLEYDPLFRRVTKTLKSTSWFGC
Description: For oral delivery of AZD1236, n=6 adult male C57BL6 mice/group (Charles River, Margate, UK) were randomly allocated to either: (1), Sham (control; partial laminectomy but no DC crush injury); (2), DC crush injury+vehicle (partial laminectomy followed by DC crush injury and injection of vehicle); (3), DC crush injury+100 mg/kg AZD1236; (4), DC crush injury+200 mg/kg AZD1236; and (5), DC crush injury+300 mg/kg AZD1236. For intrathecal (it) delivery of AZD1236, adult male C57BL6 mice (25-30 g) (Charles River, Margate, UK) were randomly allocated to either: (1), Sham (control; partial laminectomy but no DC crush injury); (2), DC crush injury+vehicle (partial laminectomy followed by DC crush injury and injection of vehicle); (3), DC crush injury+2.5 mg/kg AZD1236; (4), DC crush injury+5 mg/kg AZD1236; and (5), DC crush injury+10 mg/kg AZD1236. For intrathecal delivery an indwelling atlanto-occipital intrathecal catheter was inserted into the intrathecal space, as described previously (F. A. Oladosu, B. P. Ciszek, S. C. O'Buckley, A. G. Nackley, Novel intrathecal and subcutaneous catheter delivery systems in the mouse. J Neurosci Methods 264, 119-128 (2016)). Briefly, with mice in the sternal recumbency a small incision was made at the nape of the neck followed by detachment of the muscles on either side of the external occipital crest to expose the A-O membrane. The membrane was incised and a 6 cm Alzet mouse intrathecal catheter (Alzet, Cupertino, Calif., USA) and polyurethane segments were gently guided 2.5 cm into the intrathecal space. The catheter was secured using 4-0 silk sutures (Oasis Medical, IL) and the exposed end of the catheter was sealed off with a stainless-steel plug and affixed to the upper back. Animals were injected immediately with vehicle or AZD1236 followed by a 10 μl PBS catheter flush. Injections were repeated every twice daily for the first 3 days after injury and drugs and vehicle reagents were delivered over 1 min time period using a Hamilton microlitre syringe (Hamilton Co, USA). Where specified intact animals with no surgical procedures were also used. All lesions were administered under 5% isofluorane induced inhalation anaesthesia, with 1.51/min O2. Pre- and post-injury analgesia was also provided.
DC crush injury was administered bilaterally at the T8 vertebral level as described previously (S. Surey, M. Berry, A. Logan, R. Bicknell, Z. Ahmed, Differential cavitation, angiogenesis and wound-healing responses in injured mouse and rat spinal cords. Neuroscience 275, 62-80 (2014); M. L. Read, S. Mir, R. Spice, R. J. Seabright, E. L. Suggate, Z. Ahmed, M. Berry, A. Logan, Profiling RNA interference (RNAi)-mediated toxicity in neural cultures for effective short interfering RNA design. J Gene Med 11, 523-534 (2009)). Briefly, calibrated watchmaker's forceps were separated by 0.5 mm and inserted through the dorsal cord meninges to a depth of 0.45 mm in mice and separated by 1 mm and inserted through the dorsal cord meninges to a depth of 1.0 mm in rats, and the DC were crushed for 3 seconds. AZD1236 or vehicle was administered twice daily by oral gavage or intrathecally, either immediately for the first 3 days or 24 hours after injury and treating twice daily until day 4 (i.e. 3 days of AZD1236 dosing). All experiments were performed with n=6 mice/group and repeated on at least 2-3 independent occasions (total=12-18 animals/group/test).
CC SCI was administered at the T7-T8 vertebral level after exposure of T6-T9 by laminectomy. […]

[2] = tested on: mice with DC crush injury; assay: Immunohistochemistry of CD11b, CD68 and GFAP at lesion site; assay type: in vivo, mouse; conditions: immediate or delayed by 24 h
Excerpt: After killing animals by exposure to rising concentrations of CO2, mice were intracardially perfused with 4% formaldehyde (TAAB Laboratories, Berkshire, UK) in 0.1M phosphate buffered saline (PBS). The lesion site+5 mm either side were dissected out, post-fixed in 4% formaldehyde and subjected to a graded series of sucrose solutions for cryoprotection. Spinal cords were blocked in OCT mounting compound (TAAB laboratories), sectioned longitudinally at 15 μm-thick using a cryostat (Brights Instruments, Huntingdon, UK) before being collected on charged glass slides (ThermoFisher Scientific, Loughborough, UK) and kept at −20° C. until required. Slides were numbered consecutively and sections from the middle of the lesion site were chosen for all immunohistochemical analyses, as described by previously (Surey S, Berry M, Logan A, Bicknell R, Ahmed Z. Differential cavitation, angiogenesis and wound-healing responses in injured mouse and rat spinal cords. Neuroscience 2014; 275: 62-80).
Fluorescent immunohistochemistry was performed as described previously (S. Surey, M. Berry, A. Logan, R. Bicknell, Z. Ahmed, Differential cavitation, angiogenesis and wound-healing responses in injured mouse and rat spinal cords. Neuroscience 275, 62-80 (2014)). […] Laminin was detected at 4 weeks after DC injury and treatment using a rabbit polyclonal anti-laminin primary antibody (ab11575; 1:400 dilution, Abcam). Macrophages were detected with a rabbit polyclonal anti-CD68 antibody (ab1525212; 1:500 dilution, Abcam); microglia were detected using a rabbit polyclonal antibody to CD11b (ab128797, 1:500 dilution, Abcam); GFAP was detected using a polyclonal anti-GFAP antibody (SAB5700611, 1:400 dilution, Sigma) were all detected at 10 days after DC injury and treatment. Semaphorin-3A (Sema-3A) and chondroitin sulphate proteoglycan (CSPG) was detected using monoclonal anti-CS-56 antibody (C8035; 1:200 dilution, Sigma) at 7 days after injury. […] CTB labelled axons in the mouse were detected using a goat polyclonal anti-CTB antibody (#703; 1:1000 dilution, List Biological Labs) at 6 weeks after DC injury. […]

## C[C@]1(CS(=O)(=O)N2CC=C(C#Cc3cnc(C4CC4)nc3)CC2)NC(=O)NC1=O [AZD1236]
[1]; intrathecal delivery
  suppression of MMP-12 activity in CSF: 90±1%
  suppression of MMP-12 activity in serum: 71±1%
[1]; intrathecal
  suppression of MMP-12 activity in spinal cord tissues: 86±4%
[1]; oral delivery, 200 mg/kg
  suppression of MMP-12 activity in CSF: 69±3%
  suppression of MMP-12 activity in serum: 90±3%
[1]; oral
  suppression of MMP-12 activity in spinal cord tissues: 85±3%
[1]; injury site, oral dosing withdrawn after 3 d
  time for MMP-12 activity to return to DC+Vehicle injury levels after withdrawal: 5 days
[1]; optimal doses, 24 h delay vs immediate
  MMP-12 activity, 24-h delayed treatment: equally as effective as immediate delivery
[2]
  CD11b immunoreactivity at the lesion site: significantly reduced
  CD68 immunoreactivity at the lesion site: significantly reduced
  GFAP+ immunoreactivity at the lesion site: significantly reduced
